In test [1] the test system is PC3 cells. Put plainly: Prostate cancer cell line proliferation screening (GR), PC3. The test is classed as cell-based, human. The settings on record: 10 µM, 48 h. Here is the method: Next, we tested the effect of compounds 1a–1e on prostate cancer derived cell lines. The anti-proliferative activity was determined in vitro by adding 10 µM compound to each of three prostate cancer cell lines (LNCaP, DU145, and PC3). As an additional comparison, immortalized non-cancerous fibroblasts (BJ hTERT) were used. These cancer cell lines are considered the classic standard of PCa cell culture. Since these cell lines grew at very different rates, inhibition of growth rate (GR) was used as a metric. All compounds except 1e were non-toxic to non-cancerous cells. Compounds 1a and 1c were both cytotoxic in the PC3 cell line (Figure 3). […] DU145 cells were weakly affected by only compound 1e with growth rate inhibition more than 50% (GR < 0.5). […] We observed substantial susceptibility of PC3 cells in comparison to DU145 (see Supplementary Materials S3 for GR50 in PC3 cells). These two cell lines are similar in many respects. […] However, they differ in their origins, PC3 being derived from a lumbar vertebral metastatic prostate tumour and DU145 from a brain metastatic prostate tumour. […] By observing a uniform response of all cell lines used in the present study to 5-fluorouracil (5-FU), we were able to rule out any general cell dependent variability in chemosensitivity towards anti-metabolite treatment. Still, chemoresistance in PC3 and DU145 may be mediated by other mechanisms. While AR also functions as a tumour suppressor inhibiting cell proliferation, it is possible in AR deprived cells to observe growth inhibition when cells retain necessary coregulators. […]
Cells were grown to approximately 80% confluence in 150 mm culture dishes and harvested by 0.25% Trypsin/EDTA (Gibco) treatment. Released cells were counted and seeded in 384 well plates (Falcon, ref. 353962) in 30 µl media with a cell count of 1500 (BJ cells, PC-3) or and 3500 (LNCaP (Lund)) cells per well. […] The cells incubated for 24 h, after which cell counts in wells of one 384-well plate were determined as described below (time zero). […]

In test [2] the target is T1, human cytochrome P450 17A1 (Homo sapiens, UniProt P05093).
T1 construct: made in house
T1 sequence (P05093 1-508): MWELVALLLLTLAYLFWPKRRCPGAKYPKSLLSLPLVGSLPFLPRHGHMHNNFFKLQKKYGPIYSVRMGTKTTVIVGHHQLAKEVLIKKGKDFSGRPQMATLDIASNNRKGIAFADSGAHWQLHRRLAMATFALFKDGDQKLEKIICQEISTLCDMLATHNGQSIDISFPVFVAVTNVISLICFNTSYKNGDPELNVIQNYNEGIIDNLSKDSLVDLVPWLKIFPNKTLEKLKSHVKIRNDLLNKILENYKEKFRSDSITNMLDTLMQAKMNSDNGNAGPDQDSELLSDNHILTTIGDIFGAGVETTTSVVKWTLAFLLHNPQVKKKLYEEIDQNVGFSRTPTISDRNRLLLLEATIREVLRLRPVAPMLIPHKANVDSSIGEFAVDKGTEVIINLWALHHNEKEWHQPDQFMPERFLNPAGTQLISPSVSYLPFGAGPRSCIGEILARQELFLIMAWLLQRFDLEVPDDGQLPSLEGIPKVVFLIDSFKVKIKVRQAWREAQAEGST
The settings on record: ref [10]; read-out: CYP17A1 Kd; cited from earlier work.

The target in test [3] is T2, human CYP17A1 (Homo sapiens, UniProt P05093).
T2 construct: made in house
T2 sequence (P05093 24-508 limits assumed): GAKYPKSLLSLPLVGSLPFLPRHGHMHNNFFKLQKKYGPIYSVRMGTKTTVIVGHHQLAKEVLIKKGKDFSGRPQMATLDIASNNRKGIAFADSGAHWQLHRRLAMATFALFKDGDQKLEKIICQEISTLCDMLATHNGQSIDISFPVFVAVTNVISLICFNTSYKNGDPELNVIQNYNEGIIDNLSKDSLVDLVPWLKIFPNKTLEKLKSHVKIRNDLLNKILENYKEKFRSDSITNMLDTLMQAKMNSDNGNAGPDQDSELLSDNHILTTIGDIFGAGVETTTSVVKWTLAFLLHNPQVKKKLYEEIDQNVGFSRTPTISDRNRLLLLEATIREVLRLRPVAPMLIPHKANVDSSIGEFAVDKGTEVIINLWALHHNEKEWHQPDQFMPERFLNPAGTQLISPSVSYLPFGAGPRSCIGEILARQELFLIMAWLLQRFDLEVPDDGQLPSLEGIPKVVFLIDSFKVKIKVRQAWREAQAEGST
Further details: method as in PMID 28373265. As to conditions: ref [11]; cited from earlier work.

Test [4] has as its target T1, human cytochrome P450 17A1. As to the kind of experiment: Spectral binding assay (CYP17A1 ligand binding). As to conditions: purified recombinant human CYP17A1, spectral titration. An excerpt: The target compounds were initially tested for binding mode and affinity for CYP17A1 using a spectral binding assay. This assay can distinguish the mode of interaction, with a blue shift of the Soret absorbance occurring when ligand displaces water from the heme iron to generate a five-coordinate iron without direct coordination to the heme iron (type I, similar to most substrates) or a red shift of the Soret peak when the ligand nitrogen replaces the water to directly interact with the six-coordinate iron (type II, similar to many inhibitors). […] This 3-pyridyl fragment is also found in abiraterone.
Initial ligand binding was evaluated by measuring absorbance changes in CYP17A1 upon addition of ligands. Purified recombinant human cytochrome P450 17A1 enzyme (1 µM) in buffer (25 mM potassium phosphate, pH 7.4, 200 mM NaCl, 20% glycerol) was titrated with ligands. Ligands were dissolved in DMSO and added to three concentrations (500, 1000, and 2000 nM). The spectral intensity difference (ΔA) was measured as difference between […]. The Amin was typically at ~410 nm and Amax at ~440 nm for the type II changes observed for these ligands.
S2. Binding spectra and CYP IC50 curves
Difference spectrum of cytochrome P450 17A1 with vs. without compound 1a (2 µM).
All compounds are type II and display the same shift as the example above.
(§1) (1 picture or pasted object on this page, not shown here)

Test [5] has as its target T2, human CYP17A1. Put plainly: Cytochrome P450 17A1 progesterone 17α-hydroxylation inhibition assay. The class given is biochemical. The settings on record: recombinant purified CYP17A1. The protocol:
Regardless of their binding affinity, all compounds were tested for their ability to inhibit progesterone 17α-hydroxylation by recombinant purified CYP17A1 (Supplementary Materials S2).
Purified recombinant human CYP17A1 (20 pmol) and human full-length cytochrome P450 reductase (80 pmol) were used to convert progesterone (purchased from Acros Organics, Fair Lawn, NJ, USA) (6 µM) to 17α-hydroxyprogesterone. Test inhibitors were dissolved in DMSO and initially tested in concentrations ranging from 1.3 to 41 µM. In subsequent assays the range of inhibitor concentrations was optimized to best define the IC50 of individual compounds. Reactions were run and the 17α -hydroxyprogesterone product measured by LC-MS as previously published.
IC50 curves for compounds inhibiting CYP17A1 progesterone 17-hydroxylation (black circles),
CYP21A2 progesterone 21-hydroxylation (red diamonds), CYP3A4 nifedipine metabolism
(green squares), and CYP2D6 quinidine metabolism (blue triangles).
as §1

We go through five molecules from PMC7402352, “Discovery of Novel Non-Steroidal Cytochrome P450 17A1 Inhibitors as Potential Prostate Cancer Agents” (International Journal of Molecular Sciences, 2020).

Several values for one entry are separate records, joined by “and”; a condition that tells them apart may be missing. Equal values may be shown once. Read-outs that look alike come from different tables or passages of the source.

In the case of `C[C@]12CC[C@H](O)CC1=CC[C@@H]1[C@@H]2CC[C@]2(C)C(c3cccnc3)=CC[C@@H]12` [Abiraterone], the “Antiproliferative response in PC3 cells (growth rate inhibition, in words)” value in test [1] is reported as “low antiproliferative activity”. In test [2], the Kd (usually a measure of binding affinity in units of concentration) is below 100 nM. Further, in test [3], the half-inhibitory concentration (IC50) (in general, the midpoint of a concentration-inhibition curve) is 80 nM.
On to `c1ccc2c(c1)ncn2-c1ccc(Nc2ccncc2)cc1` [Compound 1a], for which, in test [4], the Kd worked out at 290 ± 55 nM. Also, the 50% inhibitory concentration (IC50) in test [5] was 8000 nM and 8060 nM. Further, the “Antiproliferative response in PC3 cells (growth rate inhibition, in words)” value in test [1] was “cytotoxic”.
On to `c1ccc(Nc2ccc(-n3cnc4ccccc43)cc2)nc1` [Compound 1b], for which, in test [4], the equilibrium dissociation constant (Kd) turned out to be 420 ± 70 nM. Besides, in test [5], the half-maximal inhibitory concentration (IC50) is above 10000 nM.
For `c1ccc(Nc2ccc(-n3cnc4ccccc43)cc2)cc1` [Compound 1d], in that order: 150 ± 37 nM and 1760 ± 190 nM.
In the case of `C[C@]12CC[C@H](O)CC1=CC[C@@H]1[C@@H]2CC[C@]2(C)C(n3cnc4ccccc43)=CC[C@@H]12` [Galeterone], the dissociation constant Kd in test [2] was below 100 nM. Further, the IC50 in test [3] is 130 nM.
